Source: patent US20240082194A1, “PREVENTIVE OR THERAPEUTIC AGENT FOR INFLAMMATORY DISORDERS AND/OR PAIN DISORDERS” (Kyowa Pharma Chemical Co., Ltd., priority 2021, published 2024)
Several values for one entry are separate records, joined by “and”; a condition that tells them apart may be missing. Equal entries are not always repeated.

System: adjuvant arthritis model rats
Test: Rat adjuvant arthritis model: left hind limb (non-sensitized limb) volume
Type: in vivo, rat (male LEW rats)
Conditions: for Left hind limb volume, Mean: group mean n=5; for Left hind limb volume: individual animals
Procedure: Required amounts of GSSSG and indomethacin were weighed with an electronic balance, each ground well with a mortar, added to a solvent (0.5% methyl cellulose (MC) suspension), and suspended. The administration solution of GSSSG alone was prepared to have a concentration of 21.2 mg/mL (20 mg/mL on an anhydrous basis), and the administration solution of indomethacin alone was prepared to have a concentration of 0.06 mg/mL or 0.6 mg/mL. A combined administration solution was prepared by mixing a suspension prepared with GSSSG at 42.4 mg/mL (40 mg/mL on an anhydrous basis) with 0.12 mg/mL and 1.2 mg/mL indomethacin suspensions in equal amounts. The administration solution was prepared for 2 weeks at a time and stored under refrigeration and light shielding conditions until administration.
An appropriate amount of killed Mycobacterium tuberculosis (M. Tuberculosis H37Ra; BD) was ground in a mortar, and liquid paraffin was added thereto to prepare an adjuvant to 5 mg/mL. As experimental animals, 6-week-old male LEW rats were used. General condition observation and weight measurement were carried out upon arrival, and the presence or absence of abnormalities was confirmed.
The acclimation period was set to 7 days, and the general condition was observed once a day. On the last day of the acclimation period, left hind limb volume and body weight were measured to confirm that there were no abnormalities in body weight and general condition, and the animals were then used for a test.
On the last day of the acclimation period, the rats were sensitized with 50 μL of the prepared adjuvant under isoflurane inhalation anesthesia under the skin of the right hind limb plantar. In grouping, the rats were assigned to 6 groups (n=5) to ensure equal left hind limb volume and body weight.
The administration solution of indomethacin alone, the administration solution of GSSSG alone, and the combined administration solution were forcibly orally administered at a volume of 5 mL/kg for 14 days from the day of grouping. The dose was calculated based on the most recent body weight. The volume of the left hind limb (non-sensitized limb) was measured using a rat hind limb plantar edema volume measurement device (TK-101P; Natsume Seisakusho Co., Ltd.) on the last day of the acclimation period, the day of grouping, and twice a week after the day of grouping. The measurement was performed 5 times per rat per day, and an average value of 3 times excluding the highest and lowest values was taken as the volume.

[1] = GSSSG 100 mg/kg/day oral, day 0 (before sensitization)
[2] = GSSSG 100 mg/kg/day oral, day 9 (day of grouping, start of dosing)
[3] = GSSSG 100 mg/kg/day oral, day 13
[4] = GSSSG 100 mg/kg/day oral, day 16
[5] = GSSSG 100 mg/kg/day oral, day 20
[6] = GSSSG 100 mg/kg/day oral, day 23
[7] = Indomethacin 0.3 mg/kg/day oral, day 0 (before sensitization)
[8] = Indomethacin 0.3 mg/kg/day oral, day 9 (day of grouping, start of dosing)
[9] = Indomethacin 0.3 mg/kg/day oral, day 13
[10] = Indomethacin 0.3 mg/kg/day oral, day 16
[11] = Indomethacin 0.3 mg/kg/day oral, day 20
[12] = Indomethacin 0.3 mg/kg/day oral, day 23
[13] = Indomethacin 3 mg/kg/day oral, day 0 (before sensitization)
[14] = Indomethacin 3 mg/kg/day oral, day 9 (day of grouping, start of dosing)
[15] = Indomethacin 3 mg/kg/day oral, day 13
[16] = Indomethacin 3 mg/kg/day oral, day 16
[17] = Indomethacin 3 mg/kg/day oral, day 20
[18] = Indomethacin 3 mg/kg/day oral, day 23

`N[C@@H](CCC(=O)N[C@@H](CSSSC[C@H](NC(=O)CC[C@H](N)C(=O)O)C(=O)NCC(=O)O)C(=O)NCC(=O)O)C(=O)O` [GSSSG, glutathione trisulfide] was tested, and the “Left hind limb volume, Mean” value [1] was 1.31 mL, the “Left hind limb volume” value [1] was 1.21 mL and 1.39 mL (2×) and 1.29 mL (2×) and the “Left hind limb volume, Mean” value [2] was 1.49 mL. For the same compound, the “Left hind limb volume” value [2] was 1.29 mL and 1.52 mL and 1.58 mL (2×) and 1.51 mL, the “Left hind limb volume, Mean” value [3] was 1.99 mL and the “Left hind limb volume” value [3] was 1.45 mL and 2.35 mL and 2.08 mL and 2.06 mL and 2.00 mL. The “Left hind limb volume, Mean” value [4] was 2.26 mL, the “Left hind limb volume” value [4] was 1.41 mL and 2.64 mL (2×) and 2.28 mL and 2.35 mL and the “Left hind limb volume, Mean” value [5] was 2.39 mL. The “Left hind limb volume” value [5] was 1.72 mL and 2.82 mL and 2.58 mL and 2.53 mL and 2.31 mL, the “Left hind limb volume, Mean” value [6] was 2.54 mL and the “Left hind limb volume” value [6] was 1.67 mL and 3.22 mL and 2.77 mL and 2.69 mL and 2.34 mL. The anti-inflammatory effect (GSSSG alone administration group (100 mg/kg oral, 14 days)) was “no anti-inflammatory effect was observed”.

With `COc1ccc2c(c1)c(CC(=O)O)c(C)n2C(=O)c1ccc(Cl)cc1` [Indomethacin, indomethacin] the “Left hind limb volume, Mean” value [7] was 1.32 mL, the “Left hind limb volume” value [7] was 1.39 mL and 1.24 mL and 1.37 mL and 1.30 mL and 1.29 mL and the “Left hind limb volume, Mean” value [8] was 1.63 mL. For the same compound, the “Left hind limb volume” value [8] was 1.47 mL and 1.41 mL and 1.74 mL (2×) and 1.79 mL, the “Left hind limb volume, Mean” value [9] was 1.90 mL and the “Left hind limb volume” value [9] was 1.78 mL and 1.59 mL and 2.17 mL and 1.98 mL and 1.99 mL. The “Left hind limb volume, Mean” value [10] was 1.88 mL, the “Left hind limb volume” value [10] was 1.74 mL and 1.62 mL and 2.19 mL and 1.95 mL and 1.91 mL and the “Left hind limb volume, Mean” value [11] was 1.92 mL. The “Left hind limb volume” value [11] was 1.71 mL and 1.60 mL and 2.09 mL and 2.06 mL and 2.12 mL, the “Left hind limb volume, Mean” value [12] was 1.94 mL and the “Left hind limb volume” value [12] was 1.69 mL and 1.65 mL and 1.98 mL and 2.20 mL and 2.18 mL. For the same compound, the “Left hind limb volume, Mean” value [13] was 1.33 mL, the “Left hind limb volume” value [13] was 1.17 mL and 1.40 mL and 1.37 mL and 1.32 mL and 1.38 mL and the “Left hind limb volume, Mean” value [14] was 1.52 mL. The “Left hind limb volume” value [14] was 1.36 mL and 1.49 mL (2×) and 1.71 mL and 1.55 mL, the “Left hind limb volume, Mean” value [15] was 1.63 mL and the “Left hind limb volume” value [15] was 1.39 mL and 1.68 mL (2×) and 1.69 mL (2×). The “Left hind limb volume, Mean” value [16] was 1.55 mL, the “Left hind limb volume” value [16] was 1.36 mL and 1.60 mL (2×) and 1.58 mL and 1.62 mL and the “Left hind limb volume, Mean” value [17] was 1.52 mL. For the same compound, the “Left hind limb volume” value [17] was 1.32 mL and 1.60 mL and 1.61 mL and 1.51 mL and 1.59 mL, the “Left hind limb volume, Mean” value [18] was 1.54 mL and the “Left hind limb volume” value [18] was 1.33 mL and 1.56 mL and 1.61 mL and 1.58 mL and 1.62 mL.
